Results: the supplement of paper PMC5908809

Assays:
[1] = system: normal NK cells expanded with K562-aAPC; experiment: percent inhibition of viability; higher = more inhibition; conditions: 72 h, IL-2 2.5 ng/mL
Protocol: (§1)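 Drug sensitivity and resistance testing on K562-aAPC-expanded normal NK cells: 5 concentrations (10-fold steps over a 10,000-fold range), 72 h at 37 °C, viability by CellTiter-Glo normalised to DMSO and benzethonium chloride controls; DSS from the fitted curve.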

[2] = system: DERL-7 (IL-2 2.5 ng/mL); experiment: as above; conditions: 72 h
[3] = system: IMC-1 (IL-2 20 ng/mL); experiment: as above; conditions: 72 h
[4] = system: KAI3 (IL-2 2.5 ng/mL); experiment: as above; conditions: 72 h
[5] = system: KHYG-1 (IL-2 2.5 ng/mL); experiment: as above; conditions: 72 h
[6] = system: NK-92 (IL-2 2.5 ng/mL); experiment: as above; conditions: 72 h
[7] = system: NK-YS (IL-2 2.5 ng/mL); experiment: as above; conditions: 72 h
[8] = system: NKL (IL-2 2.5 ng/mL); experiment: as above; conditions: 72 h
[9] = system: SNK-6 (IL-2 2.5 ng/mL); experiment: as above; conditions: 72 h
[10] = system: YT (IL-2 2.5 ng/mL); experiment: as above; conditions: 72 h
[11] = system: normal primary NK cells, pool 1 (3 donors) (IL-2 2.5 ng/mL); experiment: as above; conditions: 72 h
[12] = system: normal primary NK cells, pool 1 (3 donors), resting (IL-2 0 ng/mL); experiment: as above; conditions: 72 h
[13] = system: normal primary NK cells, pool 2 (3 donors) (IL-2 2.5 ng/mL); experiment: as above; conditions: 72 h
[14] = system: normal primary NK cells, pool 3 (3 donors) (IL-2 2.5 ng/mL); experiment: as above; conditions: 72 h
[15] = system: normal NK cells expanded with K562-aAPC; experiment: drug sensitivity score (DSS) (DSS units); higher = more sensitive; extreme values may be limits of the assay; conditions: 72 h; IL-2 2.5 ng/mL
Protocol: as §1

[16] = system: DERL-7 (IL-2 2.5 ng/mL); experiment: as above; conditions: 72 h
[17] = system: IMC-1 (IL-2 20 ng/mL); experiment: as above; conditions: 72 h
[18] = system: KAI3 (IL-2 2.5 ng/mL); experiment: as above; conditions: 72 h
[19] = system: KHYG-1 (IL-2 2.5 ng/mL); experiment: as above; conditions: 72 h
[20] = system: NK-92 (IL-2 2.5 ng/mL); experiment: as above; conditions: 72 h
[21] = system: NK-YS (IL-2 2.5 ng/mL); experiment: as above; conditions: 72 h
[22] = system: NKL (IL-2 2.5 ng/mL); experiment: as above; conditions: 72 h
[23] = system: SNK-6 (IL-2 2.5 ng/mL); experiment: as above; conditions: 72 h
[24] = system: YT (IL-2 2.5 ng/mL); experiment: as above; conditions: 72 h
[25] = system: normal primary NK cells, pool 1 (3 donors) (IL-2 2.5 ng/mL); experiment: as above; conditions: 72 h
[26] = system: normal primary NK cells, pool 1 (3 donors), resting (IL-2 0 ng/mL); experiment: as above; conditions: 72 h
[27] = system: normal primary NK cells, pool 2 (3 donors) (IL-2 2.5 ng/mL); experiment: as above; conditions: 72 h
[28] = system: normal primary NK cells, pool 3 (3 donors) (IL-2 2.5 ng/mL); experiment: as above; conditions: 72 h

CCC(C)n1ncn(-c2ccc(N3CCN(c4ccc(OCC5COC(Cn6cncn6)(c6ccc(Cl)cc6Cl)O5)cc4)CC3)cc2)c1=O (stereo not drawn) [Itraconazole] (max concentration tested 5000 nM)
percent inhibition of viability [%]
Conditions	0.5 nM	5 nM	50 nM	500 nM	5000 nM
[1]	-0.18	-0.93	0.65	2.54	33
[2]	7.65	4.19	-0.11	8.64	83.6
[3]	-1.82	-3.66	-2.37	9.1	29.4
[4]	6.2	-4.32	-3.2	12.8	91.9
[5]	-2.72	3.74	1.39	6.98	98.1
[6]	-7.29	-11.1	-8.89	38.2	91.5
[7]	3.15	-1.22	-1.67	8.46	68.9
[8]	6.31	-2.93	-3.73	-6.13	84.8
[9]	-8.18	3.54	19.4	39.2	93.4
[10]	-3.86	-5.55	-5.66	0.63	45.8
[11]	-10.8	-2.66	-5.12	4.85	30.5
[12]	-22.8	-11.8	-19.2	-4.28	28.1
[13]	0.8	-6.34	8.01	14.5	25.8
[14]	-9.47	-2.98	-1.54	12.1	22.5

Conditions	drug sensitivity score
[15]	1.9
[16]	6.05
[17]	2.54
[18]	7.24
[19]	6.51
[20]	10.1
[21]	5.2
[22]	4.25
[23]	10.3
[24]	2.44
[25]	2.13
[26]	0.93
[27]	2.45
[28]	2.08

O=C(Cc1ccc(-c2ccc(OCCN3CCOCC3)cc2)cn1)NCc1ccccc1 [KX2-391] (max concentration tested 10000 nM)
percent inhibition of viability [%]
Conditions	1 nM	10 nM	100 nM	1000 nM	10000 nM
[1]	-2.89	-0.99	57	55.9	57.5
[2]	-1.42	5.02	99.3	99.9	98.9
[3]	-2.07	-3.69	99.1	100	100
[4]	-3.67	25.5	55.4	76.7	70.3
[5]	-5.79	3.13	98.5	107	98.1
[6]	2.97	44	92.2	104	96.8
[7]	-1.95	18.5	69.3	80.8	81.6
[8]	-12.7	5.97	94.5	96.4	89
[9]	27.9	54	79.7	91.6	95.2
[10]	-2.25	14.7	95.6	102	95.2
[11]	-14.5	-16.4	1.64	8.22	36.6
[12]	-13.2	-19.8	7.03	7.66	29.1
[13]	-6.2	-11.1	-5.76	6.08	22.6
[14]	-15.5	-9.53	-0.96	0.59	6.59

Conditions	drug sensitivity score
[15]	17.9
[16]	31.1
[17]	30
[18]	23
[19]	30.7
[20]	34.8
[21]	25.4
[22]	30.1
[23]	34.7
[24]	32
[25]	3.06
[26]	2.04
[27]	1.59
[28]	0
